Results reported in patent US20020137929A1, “1 - (3-heterocyclylphenyl) isothiourea, -isourea, -guanidine and -amidine herbicidal agents” (Intellectual Property Department, BASF Aktiengesellschaft, priority 1998, published 2002).

Assays:
[1] = system: TRZAWR (Wheat, Winter, cv Riband); assay: Postemergence herbicidal evaluation; type: in vivo, Triticum aestivum; details: postemergence
In short: (§1)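 Visual 0-9 injury score (stand, vigor, malformation, size, chlorosis, appearance vs untreated) taken four to five weeks post-spray, averaged across repeat tests. Test plants about two weeks old; foliar spray of acetone/water (1:1) with 0.5% surfactant delivering ~0.0156-0.500 kg active/ha.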

[2] = system: ECHORC (Watergrass (Calif.)); assay: Postemergence weed control under flooded paddy conditions; type: in vivo, Echinochloa oryzoides; details: postemergence weeds, rated 3 to 4 weeks after treatment
In short: (§2)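 Containers holding 3–5 cm weeds and rice at 1.5–2.5 leaves are flooded to 1.5–3 cm above soil. Compound in 50/50 v/v aqueous/acetone is then added directly to the water, about 0.0313–0.500 kg/ha. Plants are kept in the greenhouse and rated 0–9 visually at 3–4 weeks.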

[3] = system: GLXMAW (Soybean, Williams); assay: Postemergence herbicidal evaluation; type: in vivo, Glycine max, (L.) Merr. cv Williams; details: postemergence
In short: as §1

[4] = system: AMBEL (Ragweed, Common); assay: Preemergence herbicidal evaluation; type: in vivo, Ambrosia artemisifolia; details: preemergence, rated 4-5 weeks after treatment, 0-9 scale
In short: (§3)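 Rating at 4–5 wk post-spray on a 0–9 visual scale vs control. Application: aqueous acetone, ~0.0156–0.500 kg/ha, to soil surface after seeding, preemergence.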

[5] = system: ZEAMX (Corn, Field); assay: Postemergence herbicidal evaluation; type: in vivo, Zea mays; details: postemergence
In short: as §1

[6] = system: ORYSAT (Rice, Tebonnet); assay: Postemergence herbicidal evaluation; type: in vivo, Oryza sativa, (L.) Tebonnet; details: postemergence
In short: as §1

[7] = system: CYPSE (Flatsedge); assay: Postemergence weed control under flooded paddy conditions; type: in vivo, Cyperus serotinus; details: postemergence weeds, rated 3 to 4 weeks after treatment
In short: as §2

[8] = system: SAGPY (Arrowhead (Pygmaea)); assay: as above; type: in vivo, Sagittaria pygmaea; details: postemergence weeds, rated 3 to 4 weeks after treatment
In short: as §2

[9] = system: CYPIR (Rice Flatsedge); assay: Preemergence weed control under flooded paddy conditions; type: in vivo, Cyperus iria; details: rated 3-4 weeks after treatment
In short: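 Silt loam, seeds in top 0.5 cm; flood held 1.5-3 cm; test cpd as acetone/water 50/50 into flood water, ~0.0313-0.500 kg/ha a.i.; greenhouse 3-4 wk; visual 0-9 score vs control.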

[10] = system: SETVI (Foxtail, Green); assay: Postemergence herbicidal evaluation; type: in vivo, Setaria viridis; details: postemergence
In short: as §1

[11] = system: GALAP (Galium); assay: Preemergence herbicidal evaluation; type: in vivo, Galium aparine; details: preemergence, rated 4-5 weeks after treatment, 0-9 scale
In short: as §3

[12] = system: SETVI (Foxtail, Green); assay: Preemergence herbicidal evaluation; type: in vivo, Setaria viridis; details: preemergence, rated 4-5 weeks after treatment, 0-9 scale
In short: as §3

[13] = system: ABUTH (Velvetleaf); assay: Postemergence herbicidal evaluation; type: in vivo, Abutilon theophrasti; details: postemergence
In short: as §1

[14] = system: CHEAL (Lambsquarters, Common); assay: Postemergence herbicidal evaluation; type: in vivo, Chenopodium album; details: postemergence
In short: as §1

`CCOC(=O)CN1C(=O)C(CC(=O)NS(=O)(=O)CC)SC1=Nc1cc(-n2c(=O)cc(C(F)(F)F)n(C)c2=O)c(F)cc1Cl` (stereo not drawn) [Compound 103, Ethyl 2-{{2-chloro-5-[3,6-dihydro-3-methyl-2,6-dioxo-4-(trifluoromethyl)-1(2H)-pyrimidinyl]-4-fluorophenyl}imino}-5-{[(ethylsulfonyl)carbamoyl]-methyl}-4-oxo-3-thiazolidineacetate] was tested, and the “herbicidal rating TRZAWR” value ([1]; rate 0.0156 kg/ha) was 3.5, the “herbicidal rating TRZAWR” value ([1]; rate 0.0313 kg/ha) was 6.0 and the “herbicidal rating TRZAWR” value ([1]; rate 0.0625 kg/ha) was 7.5. For the same compound, the “herbicidal rating TRZAWR” value ([1]; rate 0.1250 kg/ha) was 7.5, the “Herbicidal rating ECHORC” value ([2]; Rate 0.0313 kg/ha) was 4.0 and the “Herbicidal rating ECHORC” value ([2]; Rate 0.0625 kg/ha) was 4.0. The “Herbicidal rating ECHORC” value ([2]; Rate 0.1250 kg/ha) was 5.0, the “Herbicidal rating ECHORC” value ([2]; Rate 0.2500 kg/ha) was 6.0 and the “herbicidal rating GLXMAW” value ([3]; rate 0.0156 kg/ha) was 8.0. The “herbicidal rating GLXMAW” value ([3]; rate 0.0313 kg/ha) was 7.0, the “herbicidal rating GLXMAW” value ([3]; rate 0.0625 kg/ha) was 9.0 and the “herbicidal rating GLXMAW” value ([3]; rate 0.1250 kg/ha) was 9.0. For the same compound, the AMBEL rating ([4]; 0.0313 kg/ha) was 0.0, the AMBEL rating ([4]; 0.0625 kg/ha) was 0.0 and the AMBEL rating ([4]; 0.1250 kg/ha) was 0.0. The AMBEL rating ([4]; 0.2500 kg/ha) was 4.0, the AMBEL rating ([4]; 0.5000 kg/ha) was 9.0 and the “herbicidal rating ZEAMX” value ([5]; rate 0.0156 kg/ha) was 5.5. The “herbicidal rating ZEAMX” value ([5]; rate 0.0313 kg/ha) was 7.5, the “herbicidal rating ZEAMX” value ([5]; rate 0.0625 kg/ha) was 8.5 and the “herbicidal rating ZEAMX” value ([5]; rate 0.1250 kg/ha) was 8.5. The “herbicidal rating ORYSAT” value ([6]; rate 0.0156 kg/ha) was 1.5, the “herbicidal rating ORYSAT” value ([6]; rate 0.0313 kg/ha) was 2.0 and the “herbicidal rating ORYSAT” value ([6]; rate 0.0625 kg/ha) was 2.5. The “herbicidal rating ORYSAT” value ([6]; rate 0.1250 kg/ha) was 3.5, the “Herbicidal rating CYPSE” value ([7]; Rate 0.0313 kg/ha) was 5.0 and the “Herbicidal rating CYPSE” value ([7]; Rate 0.0625 kg/ha) was 5.0. For the same compound, the “Herbicidal rating CYPSE” value ([7]; Rate 0.1250 kg/ha) was 6.0, the “Herbicidal rating CYPSE” value ([7]; Rate 0.2500 kg/ha) was 6.0 and the “Herbicidal rating SAGPY” value ([8]; Rate 0.0313 kg/ha) was 7.0. For the same compound, the “Herbicidal rating SAGPY” value ([8]; Rate 0.0625 kg/ha) was 9.0, the “Herbicidal rating SAGPY” value ([8]; Rate 0.1250 kg/ha) was 9.0 and the “Herbicidal rating SAGPY” value ([8]; Rate 0.2500 kg/ha) was 9.0. For the same compound, the “CYPIR herbicidal effect rating” value ([9]; 0.0313 kg/ha) was 4.0, the “CYPIR herbicidal effect rating” value ([9]; 0.0625 kg/ha) was 6.0 and the “CYPIR herbicidal effect rating” value ([9]; 0.1250 kg/ha) was 9.0. The “CYPIR herbicidal effect rating” value ([9]; 0.2500 kg/ha) was 9.0, the “herbicidal rating SETVI” value ([10]; rate 0.0156 kg/ha) was 4.0 and the “herbicidal rating SETVI” value ([10]; rate 0.0313 kg/ha) was 5.0. For the same compound, the “herbicidal rating SETVI” value ([10]; rate 0.0625 kg/ha) was 9.0, the “herbicidal rating SETVI” value ([10]; rate 0.1250 kg/ha) was 9.0 and the GALAP rating ([11]; 0.0313 kg/ha) was 0.0. For the same compound, the GALAP rating ([11]; 0.0625 kg/ha) was 0.0, the GALAP rating ([11]; 0.1250 kg/ha) was 0.0 and the GALAP rating ([11]; 0.2500 kg/ha) was 0.0. The GALAP rating ([11]; 0.5000 kg/ha) was 7.0, the SETVI rating ([12]; 0.0313 kg/ha) was 0.0 and the SETVI rating ([12]; 0.0625 kg/ha) was 0.0. For the same compound, the SETVI rating ([12]; 0.1250 kg/ha) was 3.0, the SETVI rating ([12]; 0.2500 kg/ha) was 3.0 and the SETVI rating ([12]; 0.5000 kg/ha) was 9.0. For the same compound, the “herbicidal rating ABUTH” value ([13]; rate 0.0156 kg/ha) was 9.0, the “herbicidal rating ABUTH” value ([13]; rate 0.0313 kg/ha) was 9.0 and the “herbicidal rating ABUTH” value ([13]; rate 0.0625 kg/ha) was 9.0. The “herbicidal rating ABUTH” value ([13]; rate 0.1250 kg/ha) was 9.0, the “herbicidal rating CHEAL” value ([14]; rate 0.0156 kg/ha) was 3.0 and the “herbicidal rating CHEAL” value ([14]; rate 0.0313 kg/ha) was 3.0. The “herbicidal rating CHEAL” value ([14]; rate 0.0625 kg/ha) was 5.0 and the “herbicidal rating CHEAL” value ([14]; rate 0.1250 kg/ha) was 9.0.

With `CCOC(=O)CN1C(=O)C(CC(=O)NS(=O)(=O)c2ccccc2)SC1=Nc1cc(-n2c(=O)cc(C(F)(F)F)n(C)c2=O)c(F)cc1Cl` (stereo not drawn) [Compound 100, Ethyl 2-{{2-chloro-5-[3,6-dihydro-3-methyl-2,6-dioxo-4-(trifluoromethyl)-1(2H)-pyrimidinyl]-4-fluorophenyl}imino}-4-oxo-5-{[(phenylsulfonyl)-carbamoyl]methyl]-3-thiazolidineacetate] the “herbicidal rating TRZAWR” value ([1]; rate 0.0156 kg/ha) was 3.0, the “herbicidal rating TRZAWR” value ([1]; rate 0.0313 kg/ha) was 4.0 and the “herbicidal rating TRZAWR” value ([1]; rate 0.0625 kg/ha) was 3.5. For the same compound, the “herbicidal rating TRZAWR” value ([1]; rate 0.1250 kg/ha) was 4.0, the “Herbicidal rating ECHORC” value ([2]; Rate 0.0313 kg/ha) was 0.0 and the “Herbicidal rating ECHORC” value ([2]; Rate 0.0625 kg/ha) was 0.0. The “Herbicidal rating ECHORC” value ([2]; Rate 0.1250 kg/ha) was 0.0, the “Herbicidal rating ECHORC” value ([2]; Rate 0.2500 kg/ha) was 3.0 and the “Herbicidal rating ECHORC” value ([2]; Rate 0.5000 kg/ha) was 4.0. The “herbicidal rating GLXMAW” value ([3]; rate 0.0156 kg/ha) was 5.5, the “herbicidal rating GLXMAW” value ([3]; rate 0.0313 kg/ha) was 6.0 and the “herbicidal rating GLXMAW” value ([3]; rate 0.0625 kg/ha) was 6.5. For the same compound, the “herbicidal rating GLXMAW” value ([3]; rate 0.1250 kg/ha) was 7.0, the AMBEL rating ([4]; 0.0313 kg/ha) was 0.0 and the AMBEL rating ([4]; 0.0625 kg/ha) was 0.0. For the same compound, the AMBEL rating ([4]; 0.1250 kg/ha) was 1.0, the AMBEL rating ([4]; 0.2500 kg/ha) was 1.0 and the AMBEL rating ([4]; 0.5000 kg/ha) was 7.0. For the same compound, the “herbicidal rating ZEAMX” value ([5]; rate 0.0156 kg/ha) was 4.5, the “herbicidal rating ZEAMX” value ([5]; rate 0.0313 kg/ha) was 5.0 and the “herbicidal rating ZEAMX” value ([5]; rate 0.0625 kg/ha) was 5.0. For the same compound, the “herbicidal rating ZEAMX” value ([5]; rate 0.1250 kg/ha) was 5.0, the “herbicidal rating ORYSAT” value ([6]; rate 0.0156 kg/ha) was 3.0 and the “herbicidal rating ORYSAT” value ([6]; rate 0.0313 kg/ha) was 3.5. The “herbicidal rating ORYSAT” value ([6]; rate 0.0625 kg/ha) was 3.5, the “herbicidal rating ORYSAT” value ([6]; rate 0.1250 kg/ha) was 3.5 and the “Herbicidal rating CYPSE” value ([7]; Rate 0.0313 kg/ha) was 0.0. The “Herbicidal rating CYPSE” value ([7]; Rate 0.0625 kg/ha) was 0.0, the “Herbicidal rating CYPSE” value ([7]; Rate 0.1250 kg/ha) was 0.0 and the “Herbicidal rating CYPSE” value ([7]; Rate 0.2500 kg/ha) was 0.0. The “Herbicidal rating SAGPY” value ([8]; Rate 0.0313 kg/ha) was 0.0, the “Herbicidal rating SAGPY” value ([8]; Rate 0.0625 kg/ha) was 0.0 and the “Herbicidal rating SAGPY” value ([8]; Rate 0.1250 kg/ha) was 0.0. For the same compound, the “Herbicidal rating SAGPY” value ([8]; Rate 0.2500 kg/ha) was 4.0, the “Herbicidal rating SAGPY” value ([8]; Rate 0.5000 kg/ha) was 6.0 and the “CYPIR herbicidal effect rating” value ([9]; 0.0313 kg/ha) was 0.0. For the same compound, the “CYPIR herbicidal effect rating” value ([9]; 0.0625 kg/ha) was 0.0, the “CYPIR herbicidal effect rating” value ([9]; 0.1250 kg/ha) was 0.0 and the “CYPIR herbicidal effect rating” value ([9]; 0.2500 kg/ha) was 4.0. For the same compound, the “CYPIR herbicidal effect rating” value ([9]; 0.5000 kg/ha) was 9.0, the “herbicidal rating SETVI” value ([10]; rate 0.0156 kg/ha) was 2.0 and the “herbicidal rating SETVI” value ([10]; rate 0.0313 kg/ha) was 9.0. The “herbicidal rating SETVI” value ([10]; rate 0.0625 kg/ha) was 6.0, the “herbicidal rating SETVI” value ([10]; rate 0.1250 kg/ha) was 7.0 and the GALAP rating ([11]; 0.0313 kg/ha) was 0.0. It also gave a GALAP rating ([11]; 0.0625 kg/ha) of 1.0, a GALAP rating ([11]; 0.2500 kg/ha) of 6.0 and a GALAP rating ([11]; 0.5000 kg/ha) of 6.0. For the same compound, the SETVI rating ([12]; 0.0313 kg/ha) was 0.0, the SETVI rating ([12]; 0.0625 kg/ha) was 1.0 and the SETVI rating ([12]; 0.1250 kg/ha) was 0.0. The SETVI rating ([12]; 0.2500 kg/ha) was 1.0, the SETVI rating ([12]; 0.5000 kg/ha) was 1.0 and the “herbicidal rating ABUTH” value ([13]; rate 0.0156 kg/ha) was 9.0. The “herbicidal rating ABUTH” value ([13]; rate 0.0313 kg/ha) was 9.0, the “herbicidal rating ABUTH” value ([13]; rate 0.0625 kg/ha) was 9.0 and the “herbicidal rating ABUTH” value ([13]; rate 0.1250 kg/ha) was 9.0. For the same compound, the “herbicidal rating CHEAL” value ([14]; rate 0.0156 kg/ha) was 5.0, the “herbicidal rating CHEAL” value ([14]; rate 0.0313 kg/ha) was 7.0 and the “herbicidal rating CHEAL” value ([14]; rate 0.0625 kg/ha) was 7.0. For the same compound, the “herbicidal rating CHEAL” value ([14]; rate 0.1250 kg/ha) was 9.0.
